Source: ChEMBL document CHEMBL1687833, “Genetic context and biochemical characterization of the IMP-18 metallo-beta-lactamase identified in a Pseudomonas aeruginosa isolate from the United States” (2011)
Values after ≈ are worked out from the molar mass of the structure shown.

Key:
[1] = tested on: Pseudomonas aeruginosa; assay: Ratio of Kcat to Km for Pseudomonas aeruginosa strain PS 297 metallo-beta-lactamase IMP-1 expressed in Escherichia coli BL21(DE3) assessed as substrate hydrolysis using 100 uM nitrocefin
[2] = tested on: Pseudomonas aeruginosa; assay: Ratio of Kcat to Km for Pseudomonas aeruginosa strain PS 297 metallo-beta-lactamase IMP18 expressed in Escherichia coli BL21(DE3) assessed as substrate hydrolysis using 100 uM nitrocefin
[3] = tested on: Escherichia coli; assay: Antimicrobial activity against Escherichia coli DH5alpha carrying Pseudomonas aeruginosa strain PS 297 IMP-18-pLBII after 18 hrs by microdilution broth method; type: functional; settings: DH5[alpha]
[4] = tested on: Escherichia coli; assay: Antimicrobial activity against Escherichia coli DH5alpha carrying empty pBC-SK after 18 hrs by microdilution broth method; type: functional; settings: DH5[alpha]
[5] = tested on: Pseudomonas aeruginosa; assay: Activity of Pseudomonas aeruginosa strain PS 297 metallo-beta-lactamase IMP-18 expressed in Escherichia coli BL21(DE3) assessed as substrate hydrolysis using 100 uM nitrocefin
[6] = tested on: Escherichia coli; assay: Antimicrobial activity against Escherichia coli DH5alpha carrying Pseudomonas aeruginosa strain PS 297 IMP-1-pLBII after 18 hrs by microdilution broth method; type: functional; settings: DH5[alpha]
[7] = tested on: Pseudomonas aeruginosa; assay: Activity of Pseudomonas aeruginosa strain PS 297 metallo-beta-lactamase IMP-1 expressed in Escherichia coli BL21(DE3) assessed as substrate hydrolysis using 100 uM nitrocefin

Row | Compound | kcat/Km [1] | kcat/Km [2] | MIC [3] | MIC [4] | Km [5] | kcat [5] | MIC [6] | Km [7] | kcat [7]
1 | C[C@@H](O)[C@H]1C(=O)N2C(C(=O)O)=C(S[C@@H]3CN[C@H](C(=O)Nc4cccc(C(=O)O)c4)C3)[C@H](C)[C@H]12 | 7.6 ×10⁵ /M/s | 1.2 ×10⁴ /M/s | 0.12 µg/mL (≈ 0.252 µM) | ≤ 0.015 µg/mL | 2.6 µM | 0.03 s⁻¹ | 2 µg/mL (≈ 4.21 µM) | 21 µM | 16 s⁻¹
2 | CO/N=C(\C(=O)N[C@@H]1C(=O)N2C(C(=O)[O-])=C(C[N+]3(C)CCCC3)CS[C@H]12)c1csc(N)n1 | 6.6 ×10⁵ /M/s | 4.4 ×10⁵ /M/s | – | 0.25 µg/mL (≈ 0.52 µM) | 0.8 µM | 0.35 s⁻¹ | 4 µg/mL (≈ 8.32 µM) | 11 µM | 7 s⁻¹
3 | CC1(C)S[C@@H]2[C@H](NC(=O)Cc3ccccc3)C(=O)N2[C@H]1C(=O)O | 6.2 ×10⁵ /M/s | 6.2 ×10⁵ /M/s | – | – | 90 µM | 54 s⁻¹ | – | 520 µM | 320 s⁻¹
4 | O=C(Cc1cccs1)N[C@@H]1C(=O)N2C(C(=O)O)=C(/C=C/c3ccc([N+](=O)[O-])cc3[N+](=O)[O-])CS[C@H]12 | 2.3 ×10⁶ /M/s | 6.1 ×10⁶ /M/s | – | – | 9 µM | 55 s⁻¹ | – | 27 µM | 63 s⁻¹
5 | CC1(C)S[C@@H]2[C@H](NC(=O)[C@H](N)c3ccccc3)C(=O)N2[C@H]1C(=O)O [AMPICILLIN] | 4.8 ×10⁶ /M/s | 6.3 ×10⁵ /M/s | 64 µg/mL (≈ 183 µM) | 4 µg/mL (≈ 11.4 µM) | 103 µM | 65 s⁻¹ | 256 µg/mL (≈ 733 µM) | 200 µM | 950 s⁻¹
6 | C[C@H]1[C@H](NC(=O)/C(=N\OC(C)(C)C(=O)O)c2csc(N)n2)C(=O)N1S(=O)(=O)O [AZTREONAM] | – | – | – | – | > 1000 µM | < 0.01 s⁻¹ | – | > 1000 µM | < 0.01 s⁻¹
7 | CO/N=C(\C(=O)N[C@@H]1C(=O)N2C(C(=O)O)=C(COC(C)=O)CS[C@H]12)c1csc(N)n1 [CEFOTAXIME] | 3.5 ×10⁵ /M/s | 2.3 ×10⁵ /M/s | 32 µg/mL (≈ 70.3 µM) | 0.25 µg/mL (≈ 0.549 µM) | 3 µM | 0.7 s⁻¹ | 8 µg/mL (≈ 17.6 µM) | 4 µM | 1.3 s⁻¹
8 | CO[C@@]1(NC(=O)C2SC(=C(C(N)=O)C(=O)O)S2)C(=O)N2C(C(=O)O)=C(CSc3nnnn3C)CS[C@@H]21 (stereo partly specified) [CEFOTETAN] | – | – | 32 µg/mL (≈ 55.6 µM) | 0.25 µg/mL (≈ 0.434 µM) | – | – | > 32 µg/mL | – | –
9 | CO[C@@]1(NC(=O)Cc2cccs2)C(=O)N2C(C(=O)O)=C(COC(N)=O)CS[C@@H]21 [CEFOXITIN] | – | – | 256 µg/mL (≈ 599 µM) | 4 µg/mL (≈ 9.36 µM) | – | – | > 256 µg/mL | – | –
10 | CC(C)(O/N=C(\C(=O)N[C@@H]1C(=O)N2C(C(=O)[O-])=C(C[n+]3ccccc3)CS[C@H]12)c1csc(N)n1)C(=O)O [CEFTAZIDIME] | 1.8 ×10⁵ /M/s | 7.7 ×10⁵ /M/s | 32 µg/mL (≈ 58.5 µM) | 0.25 µg/mL (≈ 0.457 µM) | 1.3 µM | 1 s⁻¹ | 32 µg/mL (≈ 58.5 µM) | 44 µM | 8 s⁻¹
11 | CO/N=C(\C(=O)N[C@@H]1C(=O)N2C(C(=O)O)=C(CSc3nc(=O)c(O)nn3C)CS[C@H]12)c1csc(N)n1 [CEFTRIAXONE] | – | – | 4 µg/mL (≈ 7.21 µM) | 0.25 µg/mL (≈ 0.451 µM) | – | – | 8 µg/mL (≈ 14.4 µM) | – | –
12 | CO/N=C(\C(=O)N[C@@H]1C(=O)N2C(C(=O)O)=C(COC(N)=O)CS[C@H]12)c1ccco1 [CEFUROXIME] | – | 1.3 ×10⁵ /M/s | 64 µg/mL (≈ 151 µM) | 4 µg/mL (≈ 9.43 µM) | 7 µM | 0.9 s⁻¹ | 128 µg/mL (≈ 302 µM) | – | –
13 | CC(=O)OCC1=C(C(=O)O)N2C(=O)[C@@H](NC(=O)Cc3cccs3)[C@H]2SC1 [CEPHALOTHIN] | 2.4 ×10⁶ /M/s | 4 ×10⁶ /M/s | 32 µg/mL (≈ 80.7 µM) | 4 µg/mL (≈ 10.1 µM) | 0.1 µM | 0.4 s⁻¹ | 256 µg/mL (≈ 646 µM) | 21 µM | –
14 | C[C@@H](O)[C@H]1C(=O)N2C(C(=O)O)=C(SCCNC=N)C[C@H]12 [IMIPENEM ANHYDROUS] | 1.2 ×10⁶ /M/s | 2.4 ×10⁶ /M/s | – | – | 7 µM | 17 s⁻¹ | 2 µg/mL (≈ 6.68 µM) | 39 µM | 46 s⁻¹
15 | C[C@@H](O)[C@H]1C(=O)N2C(C(=O)O)=C(S[C@@H]3CN[C@H](C(=O)N(C)C)C3)[C@H](C)[C@H]12 [MEROPENEM] | 5 ×10⁵ /M/s | 6 ×10³ /M/s | 0.06 µg/mL (≈ 0.156 µM) | ≤ 0.015 µg/mL | 8.4 µM | 0.05 s⁻¹ | 2 µg/mL (≈ 5.22 µM) | – | –
16 | CCN1CCN(C(=O)N[C@@H](C(=O)N[C@@H]2C(=O)N3[C@@H]2SC(C)(C)[C@@H]3C(=O)O)c2ccccc2)C(=O)C1=O [PIPERACILLIN] | 7.2 ×10⁵ /M/s | 5.1 ×10⁴ /M/s | 1 µg/mL (≈ 1.93 µM) | 1 µg/mL (≈ 1.93 µM) | > 200 µM | > 10 s⁻¹ | 1 µg/mL (≈ 1.93 µM) | – | –
17 | CO[C@@]1(NC(=O)C(C(=O)O)c2ccsc2)C(=O)N2[C@@H](C(=O)O)C(C)(C)S[C@@H]21 (stereo partly specified) [TEMOCILLIN] | < 100 M⁻¹ s⁻¹ | 7.5 ×10² /M/s | 16 µg/mL (≈ 38.6 µM) | 16 µg/mL (≈ 38.6 µM) | > 1000 µM | > 0.75 s⁻¹ | 32 µg/mL (≈ 77.2 µM) | > 2000 µM | –
18 | CC1(C)S[C@@H]2[C@H](NC(=O)[C@H](C(=O)O)c3ccsc3)C(=O)N2[C@H]1C(=O)O [TICARCILLIN] | 1.5 ×10³ /M/s | 1.5 ×10⁵ /M/s | 256 µg/mL (≈ 666 µM) | 8 µg/mL (≈ 20.8 µM) | 180 µM | 30 s⁻¹ | 512 µg/mL (≈ 1330 µM) | 740 µM | 1.1 s⁻¹
